These results are taken from patent US9770022B2, “N-cycloalkyl-N-[(bicyclylphenyl)methylene]-(thio)carboxamide derivatives” (BAYER CROPSCIENCE AG, priority 2013, dated 2017).

Where two headings read alike, the source gives them in different places.

Series [1] is described as follows: log P by HPLC on reversed-phase column (C 18), EEC Directive 79/831 Annex V.A8. The conditions noted are these: for chromatographic logP: reversed-phase HPLC column (C 18). The series is classed as physicochemical. As for the experimental part:
In table 1, the log P values were determined in accordance with EEC Directive 79/831 Annex V.A8 by HPLC (High Performance Liquid Chromatography) on a reversed-phase column (C 18), using the method described below:
Temperature: 40° C.; Mobile phases: 0.1% aqueous formic acid and acetonitrile; linear gradient from 10% acetonitrile to 90% acetonitrile.
Calibration was carried out using unbranched alkan-2-ones (comprising 3 to 16 carbon atoms) with known log P values (determination of the log P values by the retention times using linear interpolation between two successive alkanones). lambda-max-values were determined using UV-spectra from 200 nm to 400 nm and the peak values of the chromatographic signals.

Series [2] deals with Pyrenophora teres. The series is described as follows: In vivo preventive test on Pyrenophora teres (barley). The following applies: 500 ppm of active ingredient, evaluated 14 days after inoculation. As for the experimental part: (§1) Solvent: 5% by volume of Dimethyl sulfoxide
(§2) • 10% by volume of Acetone Emulsifier: 1 μl of Tween® 80 per mg of active ingredient
(§3) The active ingredients are made soluble and homogenized in a mixture of Dimethyl sulfoxide/Acetone/Tween® 80 and then diluted in water to the desired concentration.
The young plants of barley are treated by spraying the active ingredient prepared as described above. Control plants are treated only with an aqueous solution of Acetone/Dimethyl sulfoxide/Tween® 80.
After 24 hours, the plants are contaminated by spraying the leaves with an aqueous suspension of Pyrenophora teres spores. The contaminated barley plants are incubated for 48 hours at 20° C. and at 100% relative humidity and then for 12 days at 20° C. and at 70-80% relative humidity.
The test is evaluated 14 days after the inoculation. 0% means an efficacy which corresponds to that of the control plants while an efficacy of 100% means that no disease is observed.

For series [3], the system named is Puccinia recondita. The series is described as follows: In vivo preventive test on Puccinia recondita (brown rust on wheat). The following applies: evaluated 11 days after inoculation. As for the experimental part: as §1, §2, §3
(§4) The young plants of wheat are treated by spraying the active ingredient prepared as described above. Control plants are treated only with an aqueous solution of Acetone/Dimethyl sulfoxide/Tween® 80.
After 24 hours, the plants are contaminated by spraying the leaves with an aqueous suspension of Puccinia recondita spores. The contaminated wheat plants are incubated for 24 hours at 20° C. and at 100% relative humidity and then for 10 days at 20° C. and at 70-80% relative humidity.
(§5) The test is evaluated 11 days after the inoculation. 0% means an efficacy which corresponds to that of the control plants while an efficacy of 100% means that no disease is observed.

For series [4], the system named is Septoria tritici. Nature of the series: In vivo preventive test on Septoria tritici (wheat). The conditions noted are these: 500 ppm of active ingredient, evaluated 24 days after inoculation. As for the experimental part:
as §1, §2, §3, §4
After 24 hours, the plants are contaminated by spraying the leaves with an aqueous suspension of Septoria tritici spores. The contaminated wheat plants are incubated for 72 hours at 18° C. and at 100% relative humidity and then for 21 days at 20° C. and at 90% relative humidity.
The test is evaluated 24 days after the inoculation. 0% means an efficacy which corresponds to that of the control plants while an efficacy of 100% means that no disease is observed.

Series [5] deals with Sphaerotheca fuliginea. Nature of the series: In vivo preventive test on Sphaerotheca fuliginea (powdery mildew on cucurbits). The following applies: gherkin, evaluated 15 days after inoculation. As for the experimental part: as §1, §2, §3
The young plants of gherkin are treated by spraying the active ingredient prepared as described above. Control plants are treated only with an aqueous solution of Acetone/Dimethyl sulfoxide/Tween® 80.
After 24 hours, the plants are contaminated by spraying the leaves with an aqueous suspension of Sphaerotheca fuliginea spores. The contaminated gherkin plants are incubated for 72 hours at 18° C. and at 100% relative humidity and then for 12 days at 20° C. and at 70-80% relative humidity.
The test is evaluated 15 days after the inoculation. 0% means an efficacy which corresponds to that of the control plants while an efficacy of 100% means that no disease is observed.

Series [6] deals with Uromyces appendiculatus. The series is described as follows: In vivo preventive test on Uromyces appendiculatus (bean rust). The conditions noted are these: for pest or weed control at 500 ppm: Uromyces appendiculatus, 264 h. As for the experimental part: as §1, §2, §3
The young plants of bean are treated by spraying the active ingredient prepared as described above. Control plants are treated only with an aqueous solution of Acetone/Dimethyl sulfoxide/Tween® 80.
After 24 hours, the plants are contaminated by spraying the leaves with an aqueous suspension of Uromyces appendiculatus spores. The contaminated bean plants are incubated for 24 hours at 20° C. and at 100% relative humidity and then for 10 days at 20° C. and at 70-80% relative humidity.
as §5

The subject of series [7] is Alternaria brassicae. Nature of the series: In vivo preventive test on Alternaria brassicae (leaf spot on radish). The conditions noted are these: 500 ppm of active ingredient, spray 24 hours before inoculation, evaluated 6 days after inoculation. As for the experimental part: as §1, §2, §3
The young plants of radish are treated by spraying the active ingredient prepared as described above. Control plants are treated only with an aqueous solution of Acetone/Dimethyl sulfoxide/Tween® 80.
After 24 hours, the plants are contaminated by spraying the leaves with an aqueous suspension of Alternaria brassicae spores. The contaminated radish plants are incubated for 6 days at 20° C. and at 100% relative humidity.
The test is evaluated 6 days after the inoculation. 0% means an efficacy which corresponds to that of the control plants while an efficacy of 100% means that no disease is observed.

The mark [8] stands for this setting: Table 1, HPLC C 18, 40° C., 0.1% aqueous formic acid and acetonitrile, gradient 10% to 90% acetonitrile, two values = mixture of endo and exo isomers.
[9] abbreviates: 500 ppm of active ingredient, evaluated 11 days after inoculation.
[10] abbreviates: 500 ppm, evaluated 11 days after inoculation, Table F2 comparison, read-out: Efficacy.

As for `c1ccc(C2CC3CCC2C3)c(CNC2CC2)c1` (stereo not shown) [IIa.1, N-[2-(bicyclo[2.2.1]hept-2-yl)benzyl]cyclopropanamine], the chromatographic logP (in general, a lipophilicity value derived from retention on a column) in series [1] (Table 2 (amines IIa), same HPLC method, broad signal) is 2.01.

As to `Cn1nc(C(F)F)c(C(=S)N(Cc2ccccc2C2CC3CCC2C3)C2CC2)c1Cl` (stereo not shown) [I.06], the logP (commonly a log measure of how a compound divides between an organic and an aqueous phase) in series [1] (setting [8]) came out at 5.45. Further, the Efficacy stood at 75% in series [2]; 88% in series [3] (500 ppm of active ingredient); 88% in series [4]; 98% in series [5] (500 ppm of active ingredient); 99% in series [6] (setting [9]).

In the case of `Cn1nc(C(F)F)c(C(=O)N(Cc2ccccc2C2CCCCC2)C2CC2)c1F` [CMP5, N-(2-cyclohexylbenzyl)-N-cyclopropyl-3-(difluoromethyl)-5-fluoro-1-methyl-1H-pyrazole-4-carboxamide, reference compound], the pest or weed control at 500 ppm in series [6] (setting [10]) is under 40%.

For the compound `Cc1nn(C)c(F)c1C(=O)N(Cc1ccccc1C1CCCC1)C1CC1` [CMP4, N-(2-cyclopentylbenzyl)-N-cyclopropyl-5-fluoro-1,3-dimethyl-1H-pyrazole-4-carboxamide, reference compound], the pest or weed control at 500 ppm in series [6] (setting [10]) was under 40%.

As for `Cn1nc(C(F)F)c(C(=O)N(Cc2cc(C34CCCCC3C4(Cl)Cl)ccc2Cl)C2CC2)c1F` (stereo not shown) [I.12], the lipophilicity (logP) in series [1] (setting [8]) came to 5.25. For the same compound, the Efficacy in series [7] came to 97%; in series [2], 75%; in series [4], 94%; in series [5] (500 ppm of active ingredient) it was 100%.

In the case of `CC(c1ccccc1C1CCCC1)N(C(=O)c1c(C(F)F)nn(C)c1Cl)C1CC1` (stereo not shown) [CMP7, 5-chloro-N-[1-(2-cyclopentylphenyl)ethyl]-N-cyclopropyl-3-(difluoromethyl)-1-methyl-1H-pyrazole-4-carboxamide, reference compound], in series [6] (setting [10]), the pest or weed control at 500 ppm was under 40%.

`Cn1cc(C(=O)N(Cc2ccccc2C2CCCCC2)C2CC2)c(C(F)F)n1` [CMP6, N-(2-cyclohexylbenzyl)-N-cyclopropyl-3-(difluoromethyl)-1-methyl-1H-pyrazole-4-carboxamide, reference compound]: the pest or weed control at 500 ppm in series [6] (setting [10]) is under 40%.

In turn, `O=C(c1ccsc1Br)N(Cc1ccccc1C1CC2CCC1C2)C1CC1` (mixture of isomers) [I.04] had an Efficacy in series [4] of 79%.

Consider `Cn1nc(C(F)F)c(C(=O)N(Cc2ccccc2C23CCCCC2C3(Cl)Cl)C2CC2)c1F` (stereo not shown) [I.10], for which, in series [1] (setting [8]), the logP worked out at 4.82. The Efficacy in series [3] (500 ppm of active ingredient) stood at 88%; in series [4], 88%; in series [5] (500 ppm of active ingredient), 100%.

`Cn1cc(C(=O)N(Cc2ccccc2C2=CC3CCC2(C)C3(C)C)C2CC2)c(C(F)(F)F)c1` (stereo not shown) [I.22]: in series [1] (setting [8]), the log partition coefficient (logP) worked out at 5.72.

For the compound `Cn1nc(C(F)F)c(C(=O)N(Cc2cc(Cl)ccc2C23CCCCC2C3(Cl)Cl)C2CC2)c1F` (stereo not shown) [I.11], the logP in series [1] (setting [8]) was determined as 5.22. The Efficacy in series [7] is listed as 75%; in series [3] (500 ppm of active ingredient), 75%; in series [4], 75%; in series [5] (500 ppm of active ingredient) it was 100%.

On to `Cn1nc(C(F)F)c(C(=O)N(Cc2cc(CC3C4CCC(C4)C3(C)C)ccc2C(C)(C)C)C2CC2)c1F` (stereo not shown) [I.23], for which the logP in series [1] (setting [8]) was determined as 7.09. In addition, the Efficacy in series [3] (at 100 ppm (note 1)) is 79^(1) %; in series [5] (at 100 ppm (note 1)) it was 100^(1) %.

As to `CC(c1ccccc1C1=CCCCC1)N(C(=O)c1c(C(F)F)nn(C)c1F)C1CC1` (stereo not shown) [CMP8, N-{1-[2-(cyclohex-1-en-1-yl)phenyl]ethyl}-N-cyclopropyl-3-(difluoromethyl)-5-fluoro-1-methyl-1H-pyrazole-4-carboxamide, reference compound], the pest or weed control at 500 ppm in series [6] (500 ppm, evaluated 11 days after inoculation, Table F3 comparison, read-out: Efficacy) is under 55%.

Consider `Cn1nc(C(F)F)c(C(=O)N(Cc2cc(Cl)ccc2C23CCCCCC2C3(Cl)Cl)C2CC2)c1F` (stereo not shown) [I.14], for which the logP in series [1] (setting [8]) turned out to be 5.54. Also, the Efficacy was 83% in series [7], 75% in series [3] (500 ppm of active ingredient), 94% in series [4] and 100% in series [5] (500 ppm of active ingredient).

As to `Cn1cc(C(=S)N(Cc2ccccc2C2CC3CCC2C3)C2CC2)c(C(F)F)n1` (mixture of isomers) [I.19], the Efficacy was 75% in series [7], 88% in series [3] (500 ppm of active ingredient), 98% in series [4] and 95% in series [5] (500 ppm of active ingredient).

In the case of `Cn1nc(C(F)F)c(C(=O)N(Cc2ccccc2C2CC3CCC2C3)C2CC2)c1Cl` (mixture of isomers) [I.02], the Efficacy in series [3] (500 ppm of active ingredient) is 88%; in series [4], 86%; in series [5] (500 ppm of active ingredient) it was 98%.

Consider `Cn1nc(C(F)F)c(C(=O)N(Cc2cc(Cl)ccc2C23CCCC2C3(Cl)Cl)C2CC2)c1F` (stereo not shown) [I.08], for which, in series [1] (setting [8]), the logP worked out at 4.85. Further, the Efficacy in series [2] amounted to 81%; in series [3] (500 ppm of active ingredient) it was 88%; in series [4], 94%; in series [5] (500 ppm of active ingredient), 100%; in series [6] (setting [9]), 99%.

Regarding `Cc1nn(C)c(F)c1C(=O)N(Cc1ccccc1C1CC2CCC1C2)C1CC1` (stereo not shown) [I.01, N-[2-(bicyclo[2.2.1]hept-2-yl)benzyl]-N-cyclopropyl-5-fluoro-1,3-dimethyl-1H-pyrazole-4-carboxamide], the logP in series [1] (setting [8]) came to 4.24. Besides, the chromatographic logP in series [1] (setting [8]) was 4.16. Moreover, the Efficacy in series [2] is listed as 100%; in series [3] (500 ppm of active ingredient), 100%; in series [4], 100%; in series [5] (100 ppm, Table E2 comparison), “total protection”; in series [5] (500 ppm of active ingredient), 100%. The pest or weed control at 500 ppm was 100% in series [6] (read-out: Efficacy, 500 ppm of active ingredient, evaluated 11 days after inoculation) and at least 80% in series [6] (read-out: Efficacy, 500 ppm, evaluated 11 days after inoculation, Table F2 comparison).

With `Cn1nc(C(F)F)c(C(=O)N(Cc2ccccc2C23CCCC2C3(Cl)Cl)C2CC2)c1F` (stereo not shown) [I.07, N-cyclopropyl-N-[2-(6,6-dichlorobicyclo[3.1.0]hex-1-yl)benzyl]-3-(difluoromethyl)-5-fluoro-1-methyl-1H-pyrazole-4-carboxamide], the chromatographic logP in series [1] (setting [8]) stood at 4.46. Moreover, the Efficacy in series [2] came out at 81%; in series [3] (500 ppm of active ingredient), 94%; in series [4] it was 94%; in series [5] (500 ppm of active ingredient), 100%. The pest or weed control at 500 ppm in series [6] (500 ppm of active ingredient, evaluated 11 days after inoculation, read-out: Efficacy) was determined as 100%.
